Laboratory results from ChEMBL document CHEMBL4007424, “Design and Synthesis of Enantiomerically Pure Decahydroquinoxalines as Potent and Selective κ-Opioid Receptor Agonists with Anti-Inflammatory Activity in Vivo” (J Med Chem, 2017).
Calls of active or inactive are those of the source. The calls are words filed in the database; no cut-off is given here.

Legend:
[1] = molecular target: Mu-type opioid receptor (Cavia porcellus) (UniProt P97266); experiment: Displacement of [3H]DAMGO from mu-type opioid receptor in guinea pig brain membranes at 1 uM after 120 mins by solid scintillation counting; format: cell membranes; details: Membrane
Mu-type opioid receptor (Cavia porcellus), sequence (P97266 whole entry): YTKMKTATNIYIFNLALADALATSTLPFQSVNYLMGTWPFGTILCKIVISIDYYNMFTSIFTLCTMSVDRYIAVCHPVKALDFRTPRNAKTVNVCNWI

[2] = molecular target: Sigma non-opioid intracellular receptor 1 (Cavia porcellus) (UniProt Q60492); experiment: Displacement of [3H]-(+)-pentazocine from sigma1-type […] receptor in guinea pig cortex membranes at 1 uM after 120 mins by solid scintillation counting; format: cell membranes
Sigma non-opioid intracellular receptor 1 (Cavia porcellus), sequence (Q60492 whole entry): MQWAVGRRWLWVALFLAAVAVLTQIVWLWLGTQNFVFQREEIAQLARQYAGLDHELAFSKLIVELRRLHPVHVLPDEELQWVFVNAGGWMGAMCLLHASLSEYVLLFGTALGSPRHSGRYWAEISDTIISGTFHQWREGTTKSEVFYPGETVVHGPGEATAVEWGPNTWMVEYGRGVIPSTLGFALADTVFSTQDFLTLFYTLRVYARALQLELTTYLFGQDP

Rattus norvegicus [3] = species on record: Rattus norvegicus; experiment: Displacement of [3H]-DTG from sigma 2 receptor in rat liver membranes at 1 uM after 120 mins by scintillation counting; format: cell membranes; details: Membrane
Sus scrofa = species on record: Sus scrofa; experiment: Displacement of [3H]-(+)-MK 801 from PCP binding site of NMDA receptor in pig brain cortex membranes at 10 uM after 120 mins by solid scintillation counting; format: cell membranes
[4] = molecular target: Kappa-type opioid receptor (Homo sapiens, UniProt P41145); experiment: Agonist activity at recombinant human kappa-type opioid receptor expressed in HEK293 cells at 1 uM after 30 mins by [35S]GTPgammaS binding assay; format: functional, cell-based
Kappa-type opioid receptor, sequence (P41145 whole entry): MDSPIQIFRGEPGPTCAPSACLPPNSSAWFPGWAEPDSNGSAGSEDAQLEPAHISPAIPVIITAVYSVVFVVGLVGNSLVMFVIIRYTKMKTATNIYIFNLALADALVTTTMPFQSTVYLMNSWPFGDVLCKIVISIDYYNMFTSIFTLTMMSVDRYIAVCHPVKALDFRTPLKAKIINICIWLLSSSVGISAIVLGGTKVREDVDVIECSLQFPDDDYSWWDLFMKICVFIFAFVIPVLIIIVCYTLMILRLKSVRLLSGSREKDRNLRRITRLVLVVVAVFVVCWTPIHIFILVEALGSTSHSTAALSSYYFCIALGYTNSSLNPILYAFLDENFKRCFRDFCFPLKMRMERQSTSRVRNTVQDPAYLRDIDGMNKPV

Cavia porcellus = species on record: Cavia porcellus; experiment: Selectivity ratio of Ki for delta-type opioid receptor in guinea pig brain membranes to Ki for kappa-type opioid receptor in guinea pig brain membranes; format: cell membranes
Mus musculus [5] = experiment: (§1) Antiinflammatory activity in oxazolone-induced delayed type hypersensitivity BALB/c mouse model assessed as reduction in ear weight at 0.1 to 2.5 mg applied topically on ear administered 3 hrs prior to oxazolone challenge on day 7 to 12 post sensitization followed by re-administration of compound on day 13 to 18 without oxazolone challenge measured on day 19; format: functional
Mus musculus [6] = experiment: (§2) Antiinflammatory activity in oxazolone-induced delayed type hypersensitivity BALB/c mouse model assessed as reduction in ear swelling at 0.1 to 2.5 mg applied topically on ear administered 3 hrs prior to oxazolone challenge on day 7 to 12 post sensitization followed by re-administration of compound on day 13 to 18 without oxazolone challenge measured daily prior to treatment from day 7 to 19; format: functional
Mus musculus [7] = experiment: as §2, with “effect on histology changes” for “reduction in ear swelling”, “19 by H and E staining based assay” for “19”; format: functional
[8] = Plasma concentration in Wistar Han rat at 1 mg/kg, iv measured 0.25 hrs post compound administration; format: ADME, organism-based
[9] = Plasma concentration in Wistar Han rat at 5 mg/kg, iv measured 0.25 hrs post compound administration; format: ADME, organism-based
[10] = Plasma concentration in Wistar Han rat at 1 mg/kg, iv measured 1 hr post compound administration; format: ADME, organism-based
[11] = Plasma concentration in Wistar Han rat at 5 mg/kg, iv measured 1 hr post compound administration; format: ADME, organism-based
Brain = experiment: Drug level in Wistar Han rat brain at 1 mg/kg, iv measured 1 hr post compound administration; format: ADME, organism-based; details: in vivo, 1 h, BLD = below limit of detection
[12] = Drug level in Wistar Han rat brain at 5 mg/kg, iv measured 1 hr post compound administration; format: ADME, organism-based; details: read-out: Drug uptake
[13] = Ratio of drug level in brain to plasma in Wistar Han rat at 5 mg/kg, iv after 1 hr; format: ADME, organism-based; details: read-out: BPR
Rattus norvegicus [14] = experiment: Toxicity in Wistar Han rat assessed as clinical signs changes at 1 mg/kg, iv after 1 hr; format: organism-based; details: in vivo
Rattus norvegicus [15] = experiment: Toxicity in Wistar Han rat assessed as assessed as clinical signs changes at 5 mg/kg, iv after 1 hr; format: organism-based; details: in vivo
Mus musculus [16] = experiment: as §1, with “at” for “at 0.1 to”; format: functional
Mus musculus [17] = experiment: as §2, with “at” for “at 0.1 to”; format: functional
Mus musculus [18] = experiment: (§3) Antiinflammatory activity in tropically administered oxazolone-induced delayed type hypersensitivity BALB/c mouse model assessed as effect on ear weight administered 3 hrs prior to oxazolone challenge on day 7 to 12 post sensitization followed by re-administration of compound on day 13 to 18 without oxazolone challenge measured on day 19; format: functional
Mus musculus [19] = experiment: as §3, with “reduction in” for “effect on”, “thickness” for “weight”; format: functional
Mus musculus [20] = experiment: as §3, with “reduction in T-lymphocytes in” for “effect on”, “ear” for “ear weight”, “19 by DAPI-staining based fluorescence microscopic analysis” for “19”; format: functional, cell-based
Mus musculus [21] = experiment: as §1, with “thickness” for “weight”, “19 by H and E based staining” for “19”; format: functional
Mus musculus [22] = experiment: as §1, with “inflammatory infiltrate” for “ear weight”, “19 by H and E based staining” for “19”; format: functional
Mus musculus [23] = experiment: Antiinflammatory activity in tropically applied arachidonic acid-induced ear dermatitis ICR mouse model assessed as reduction in ear swelling administered 30 mins prior and 15 mins after arachidonic acid addition measured 60 mins post arachidonic acid challenge; format: functional
Mus musculus [24] = experiment: as §1, with “as” for “as reduction in”, “thickness” for “weight”, “0.5” for “0.1 to 2.5”, “9 to 15” for “19”; format: functional
Mus musculus [25] = experiment: as §1, with “as” for “as reduction in”, “thickness” for “weight”, “at” for “at 0.1 to”, “9 to 15” for “19”; format: functional
Mus musculus [26] = experiment: as §1, with “as” for “as reduction in”, “ear thickness” for “ear weight”, “at 0.5” for “at 0.1 to 2.5”, “measured after” for “measured on”, “day 16” for “day 19”; format: functional
Mus musculus [27] = experiment: as §1, with “hyperplastic epidrmis” for “reduction in ear weight”, “0.5 and” for “0.1 to”, “19 by H and E staining based assay” for “19”; format: functional
Mus musculus [28] = experiment: as §1, with “edema formation” for “ear weight”, “0.5 and” for “0.1 to”, “19 by H and E staining based assay” for “19”; format: functional
Mus musculus [29] = experiment: as §1, with “effect on” for “reduction in”, “thickness” for “weight”, “0.5 and” for “0.1 to”, “19 by H and E staining based assay” for “19”; format: functional
Mus musculus [30] = experiment: as §1, with “effect on” for “reduction in”, “0.5 and” for “0.1 to”; format: functional

Compound: COC(=O)N1CCN(C(=O)Cc2ccc(F)c(Cl)c2)[C@@H]2[C@@H](N3CC[C@H](F)C3)CCC[C@@H]21
- inhibition [1]: 0%
- inhibition [2]: 0%
- inhibition (Rattus norvegicus [3]): 0%
- inhibition (Sus scrofa): 0%
- Activity [4]: 92%
- Ratio Ki (Cavia porcellus): 100
- Activity (Mus musculus [5]): inactive
- Activity (Mus musculus [6]): inactive
- Activity (Mus musculus [7]): Active

Compound: COC(=O)N1CCN(C(=O)Cc2ccc(Cl)c(Cl)c2)[C@@H]2[C@@H](N3CC[C@H](O)C3)CCC[C@@H]21.Cl
- concentration at 0.25 h [8]: 599 ng/mL
- concentration at 0.25 h [9]: 1440 ng/mL
- concentration at 1 h [10]: 128 ng/mL
- concentration at 1 h [11]: 669 ng/mL
- Drug uptake (Brain): Bld
- concentration at 1 h [12]: 74.1 ng/g
- Kp at 1 h [13]: 0.11
- Activity (Rattus norvegicus [14]): Non-Toxic
- Activity (Rattus norvegicus [15]): Non-Toxic

Compound: CS(=O)(=O)N1CCN(C(=O)Cc2ccc(Cl)c(Cl)c2)[C@@H]2[C@@H](N3CC[C@H](O)C3)CCC[C@@H]21
- inhibition [2]: 0%
- inhibition (Rattus norvegicus [3]): 15%
- inhibition (Sus scrofa): 0%
- Activity [4]: 106%
- Activity (Mus musculus [16]): Active
- Activity (Mus musculus [17]): Active
- Activity (Mus musculus [18]): Dose-dependent effect
- Activity (Mus musculus [19]): Dose-dependent effect
- Activity (Mus musculus [20]): Dose-dependent effect
- Activity (Mus musculus [5]): Dose-dependent effect
- Activity (Mus musculus [7]): Active
- Activity (Mus musculus [21]): Dose-dependent effect
- Activity (Mus musculus [22]): Dose-dependent effect

Compound: COC(=O)N1CCN(C(=O)Cc2ccc(Cl)c(Cl)c2)[C@@H]2[C@@H](N3CCCC3)CCC[C@@H]21
- inhibition (Sus scrofa): 2%
- Activity (Mus musculus [23]): Dose-dependent effect
- Activity (Mus musculus [24]): inactive
- Activity (Mus musculus [25]): Active
- Activity (Mus musculus [26]): inactive
- Activity (Mus musculus [27]): Active
- Activity (Mus musculus [28]): Active
- Activity (Mus musculus [29]): inactive
- Activity (Mus musculus [30]): inactive
